# According to patent US20240092936A1, “METHODS OF TREATING HER2 POSITIVE BREAST CANCER WITH TUCATINIB IN COMBINATION WITH CAPECITABINE AND TRASTUZUMAB” (Seagen Inc., priority 2019, published 2024):
# Entries after “also recorded” stand apart in the source; their conditions may differ. Where two headings read alike, the source gives them in different places.
# Columns and labels:
# [1] = cited from earlier work
# [2] = tested on: patients on tucatinib studies; assay: Safety observations in earlier tucatinib studies (e.g. ONT-380-005); assay type: in vivo, human; details: patients taking tucatinib alone or in combination
# Description: Trastuzumab and other HER2-targeted therapies were known to increase the risk of the development of asymptomatic and symptomatic declines in LVEF. […] Cardiac function was therefore monitored closely.
# Monitoring of liver function tests was required for any patient taking tucatinib.
# Patients with brain metastases were at risk for occurrence of AEs due to the presence of CNS lesions, progression of disease and toxicities potentially related to study treatment. On occasion, treatment of brain metastases with systemic or radiation therapy had been associated with localized edema thought to be due to treatment effect and not tumor progression. […] The patient's symptoms responded rapidly and completely to systemic corticosteroids. It was not known if this patient's symptoms were due to local progression or treatment-related toxicity. […] The patient was taken for surgical resection, and found to have no viable tumor. The resected lesion was thought to represent treatment-related necrosis.
# [3] = Table 11, strong inhibitors or inducers of CYP3A4
# [4] = Table 10, strong inhibitors and inducer of CYP2C8
compound,measurement,setting,value
NC(=O)N1c2ccccc2C=Cc2ccccc21 [Carbamazepine],Elimination Half-life,"[1]; Table 11, repeat dose",12 to 17 h (repeat dose)
same,Elimination Half-life (hours),"[1]; Table 11, single dose","25-65 hours (single does),"
CC[C@H]1OC(=O)[C@H](C)[C@@H](O[C@H]2C[C@@](C)(OC)[C@@H](O)[C@H](C)O2)[C@H](C)[C@@H](O[C@@H]2O[C@H](C)C[C@H](N(C)C)[C@H]2O)[C@](C)(OC)C[C@@H](C)C(=O)[C@H](C)[C@@H](O)[C@]1(C)O [Clarithromycin],Elimination Half-life,[1]; [3],3 to 7 h
COC(=O)[C@H](c1ccccc1Cl)N1CCc2sccc2C1 [Clopidogrel],Elimination Half-life,[1]; [4],6 h
COc1ccc([C@@H]2Sc3ccccc3N(CCN(C)C)C(=O)[C@@H]2OC(C)=O)cc1 [Diltiazem],Elimination Half-life,[1]; [3],3 to 4 h
Cc1ccc(C)c(OCCCC(C)(C)C(=O)O)c1 [Gemfibrozil],Elimination Half-life,[1]; [4],1 to 2 h
CCC(C)n1ncn(-c2ccc(N3CCN(c4ccc(OCC5COC(Cn6cncn6)(c6ccc(Cl)cc6Cl)O5)cc4)CC3)cc2)c1=O (centres unmarked) [Itraconazole],Elimination Half-life,"[1]; Table 11, repeat dose",34 to 42 h (repeat dose)
same,Elimination Half-life (hours),"[1]; Table 11, single dose","16-28 hours (single dose),"
"CC(=O)N1CCN(c2ccc(OCC3COC(Cn4ccnc4)(c4ccc(Cl)cc4Cl)O3)cc2)CC1 (centres unmarked) [Ketoconazole (systemic), Ketoconazole]",Elimination Half-life,[1]; [3],2 to 8 h
CC(C)(O)c1ccccc1CC[C@@H](SCC1(CC(=O)O)CC1)c1cccc(/C=C/c2ccc3ccc(Cl)cc3n2)c1 [Montelukast],Elimination Half-life,[1]; [4],3 to 6 h
CCc1nn(CCCN2CCN(c3cccc(Cl)c3)CC2)c(=O)n1CCOc1ccccc1 [Nefazodone],Elimination Half-life,[1]; [3],2 to 4 h
O=C1NC(=O)C(c2ccccc2)(c2ccccc2)N1 [Phenytoin],Elimination Half-life,[1]; [3],7 to 42 h
CC[C@@H]([C@H](C)O)n1ncn(-c2ccc(N3CCN(c4ccc(OC[C@@H]5CO[C@@](Cn6cncn6)(c6ccc(F)cc6F)C5)cc4)CC3)cc2)c1=O [Posoconazole],Elimination Half-life,[1]; [3],27 to 35 h
COc1cc(Cc2cnc(N)nc2N)cc(OC)c1OC [Trimethoprim],Elimination Half-life,[1]; [4],8 to 12 h
C[C@@H](c1ncncc1F)[C@](O)(Cn1cncn1)c1ccc(F)cc1F [Voriconazole],Elimination Half-life (hours),[1]; [3],Dose dependent
Cc1cc(Nc2ncnc3ccc(NC4=NC(C)(C)CO4)cc23)ccc1Oc1ccn2ncnc2c1 [tucatinib],Adverse findings reported in earlier tucatinib studies,[2],rare reports of asymptomatic cardiac failure; also recorded: Grade 3 and 4 elevation of LFTs had been seen in some patients
Troleanomycin,Elimination Half-life,[1]; [3],2 h
